Values of other authors as cited in patent US20230023005A1, “IMPROVING THE PERFORMANCE OF PIGMENT-BASED DYES BY USING A PRETREAMENT AGENT” (Henkel AG & Co. KGaA, priority 2019, published 2023).

What was measured:
[1] = 5% solution in water
[2] = 25° C.

Structure (SMILES) | pH value of solution in water [1] | solubility in water [2]
O=P([O-])(O)O.[K+] [Potassium dihydrogen phosphate] | 4.4 | –
O=C([O-])c1c(Cl)c(Cl)c(Cl)c(Cl)c1-c1c2c(Br)cc(=O)c(Br)c-2oc2c(Br)c(O)cc(Br)c12.O=C([O-])c1c(Cl)c(Cl)c(Cl)c(Cl)c1-c1c2c(Br)cc(=O)c(Br)c-2oc2c(Br)c(O)cc(Br)c12.[Na+].[Na+] [Acid Red 92, disodium salt of 3,4,5,6-tetrachloro-2-(1,4,5,8-tetrabromo-6-hydroxy-3-oxoxanthen-9-yl)benzoic acid] | – | greater than 10 g/L
Nc1cc(S(=O)(=O)[O-])cc2cc(S(=O)(=O)[O-])c(N=Nc3ccccc3)c(O)c12.[Na+].[Na+] [Acid Red 33, diantrium salt of 5-amino-4-hydroxy-3-(phenylazo)-naphthalene-2,7-disulphonate] | – | 2.5 mg/mL
O=C([O-])C1=NN(c2ccc(S(=O)(=O)[O-])cc2)C(=O)C1N=Nc1ccc(S(=O)(=O)[O-])cc1.[Na+].[Na+].[Na+] (centres unmarked) [Acid Yellow 23, trisodium salt of 4,5-dihydro-5-oxo-1-(4-sulfophenyl)-4-((4-sulfophenyl)azo)-1H-pyrazole-3-carboxylic acid] | – | highly soluble in water
O=S(=O)([O-])c1ccc(N=Nc2c(O)ccc3ccccc23)cc1.[Na+] [Acid Orange 7, sodium salt of 4-[(2-hydroxy-1-naphthyl)azo]benzene sulphonate] | – | more than 7 g/L
